Molecular target: Serine/threonine-protein kinase PLK3 (Homo sapiens) (UniProt Q9H4B4)
Test: inhibition of PLK3 peptide phosphorylation – biochemical, Z'-LYTE FRET, direct format, human, dose response (AID 1671358)
Conditions: Z'-LYTE FRET kinase assay

Chain of Serine/threonine-protein kinase PLK3 (Homo sapiens) (Q9H4B4 whole entry, looked up): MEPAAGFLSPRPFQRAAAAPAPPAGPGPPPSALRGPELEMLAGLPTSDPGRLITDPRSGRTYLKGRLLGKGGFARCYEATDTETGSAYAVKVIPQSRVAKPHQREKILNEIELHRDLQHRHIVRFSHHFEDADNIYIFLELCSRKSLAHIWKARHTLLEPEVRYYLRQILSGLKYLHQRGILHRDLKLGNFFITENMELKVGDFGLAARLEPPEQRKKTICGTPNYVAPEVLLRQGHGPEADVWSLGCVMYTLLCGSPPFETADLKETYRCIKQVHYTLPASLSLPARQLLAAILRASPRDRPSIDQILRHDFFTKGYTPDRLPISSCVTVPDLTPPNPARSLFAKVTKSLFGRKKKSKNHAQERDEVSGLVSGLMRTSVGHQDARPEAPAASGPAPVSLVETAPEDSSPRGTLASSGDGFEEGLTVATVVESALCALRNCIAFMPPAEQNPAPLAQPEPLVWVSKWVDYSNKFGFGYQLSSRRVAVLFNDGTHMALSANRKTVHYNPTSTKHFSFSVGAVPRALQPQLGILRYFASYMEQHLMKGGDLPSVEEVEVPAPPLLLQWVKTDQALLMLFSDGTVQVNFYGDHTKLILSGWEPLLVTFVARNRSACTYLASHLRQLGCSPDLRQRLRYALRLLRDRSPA

SMILES: Brc1c(Br)c(Br)c2n[nH]nc2c1Br
- IC50: 1.85 µM
